Consider 1 substance from paper PMC10724293, “New ruthenium-xanthoxylin complex eliminates colorectal cancer stem cells by targeting the heat shock protein 90 chaperone” (Cell Death & Disease, 2023).

One data set relates to A-375. In words: Alamar blue cytotoxicity assay. Format: cell-based, human. The conditions noted are these: 72 h, read-out: IC50 and 95%CI. The protocol:
(§1) The Alamar blue assay was used to determine cell viability as previously described. Cells were seeded into 96-well plates at a density of 7 × 10^3 cells per well for adherent cells or 3 × 10^4 cells per well for suspended cells. The drug was added to each well after 24 h of incubation for adherent cells or immediately for suspended cells and incubated for an additional 72 h. […] Each well received 100 µM resazurin (Sigma-Aldrich Co. St. Louis, MO, United States) four (for cell lines) or 24 (for primary culture) h before the end of the incubation. A SpectraMax 190 Microplate Reader (Molecular Devices, Sunnyvale, CA, USA) was used to measure absorbance at 570 and 600 nm.
In general terms: Alamar Blue is a resazurin reagent that responds to reducing activity.

The subject of another data set is HSC-3. Put plainly: Alamar blue cytotoxicity assay. In kind it is cell-based, human. The conditions noted are these: 72 h, read-out: IC50 and 95%CI. How it is done:
as §1

Another data set relates to K-562. In words: Alamar blue cytotoxicity assay. In kind it is cell-based, human. The conditions noted are these: 72 h, read-out: IC50 and 95%CI. The protocol: as §1
Another data set relates to KG-1a. Put plainly: Alamar blue cytotoxicity assay. The conditions noted are these: 72 h, read-out: IC50 and 95%CI. In kind it is cell-based, human. The protocol:
as §1

A further data set relates to MCF-7. Put plainly: Alamar blue cytotoxicity assay. Format: cell-based, human. The conditions noted are these: 72 h, read-out: IC50 and 95%CI. How it is done: as §1
A further data set concerns MDA-MB-231. In words: Alamar blue cytotoxicity assay. In kind it is cell-based, human. The conditions noted are these: 72 h, read-out: IC50 and 95%CI. How it is done: as §1
For a further data set, the system named is U-87 MG. Put plainly: Alamar blue cytotoxicity assay. The conditions noted are these: 72 h, read-out: IC50 and 95%CI. In kind it is cell-based, human. How it is done:
as §1

For data set [1], the system named is CR01 (colorectal carcinoma). In words: Alamar blue viability of primary cancer cells. In kind it is cell-based, human. The conditions noted are these: primary CRC (first listed); 25 μg/ml (RXC 31.3 μM, DOX 46 μM); 96 h. The protocol: as §1
(§2) CR03 (metastatic cholangiocarcinoma) CR04 (malignant papillary mesothelioma) […]
(§3) Figure S1. […] Cells were exposed to 25 […]
(§4) measured after 96 h using the Alamar blue assay. The data are presented as the […]
(§5) mean ± S.E.M. of four replicates. * P < 0.05 compared to CTL by one-way ANOVA […]
(§6) followed by Dunnett's multiple comparisons test. […]

For data set [2], the system named is CR03 (metastatic cholangiocarcinoma). In words: Alamar blue viability of primary cancer cells. Format: cell-based, human. The conditions noted are these: 25 μg/ml (RXC 31.3 μM, DOX 46 μM), 96 h. The protocol: as §1, §2, §3, §4, §5, §6
Data set [3] relates to CR04 (malignant papillary mesothelioma). Put plainly: Alamar blue viability of primary cancer cells. Format: cell-based, human. The conditions noted are these: primary papilliferous malignant mesothelioma; 25 μg/ml (RXC 31.3 μM, DOX 46 μM); 96 h. The protocol: as §1, §2, §3, §4, §5, §6
Data set [4] deals with CR02 (colorectal carcinoma). In words: Alamar blue viability of primary cancer cells. The conditions noted are these: primary CRC (second listed); 25 μg/ml (RXC 31.3 μM, DOX 46 μM); 96 h. In kind it is cell-based, human. The protocol: as §1, with “nm. […]” for “nm.”
In data set [5] the test system is HCT116 cells. In words: Cell cycle distribution and internucleosomal DNA fragmentation by flow cytometry. In kind it is cell-based, human. The protocol:
For quantification of internucleosomal DNA fragmentation and cell cycle distribution, the cells were stained with PI using a solution containing 0.1% Triton X-100, 2 µg/ml PI, 0.1% sodium citrate, and 100 µg/ml RNAse (all from Sigma-Aldrich) and incubated in the dark for 15 min at room temperature. Finally, cell fluorescence was measured using flow cytometry.
For all flow cytometry analyses, cell fluorescence was measured with a BD LSRFortessa cytometer and analyzed by BD FACSDiva Software (BD Biosciences) and FlowJo Software 10 (FlowJo LLC; Ashland, OR, USA). At least 10,000 events were evaluated per sample for intracellular staining, and at least 30,000 events were acquired per sample for cell surface protein staining. FSC-A versus FCS-H and SCC-A versus SCC-H were used to remove the doublets. The analysis excluded cellular debris.
On the technique in general: Flow cytometry measures light scatter and fluorescence of single cells or particles in a stream.

The test system of data set [6] is HCT116 cells. In words: Mitochondrial transmembrane potential, rhodamine 123 flow cytometry. In kind it is cell-based, human. The conditions noted are these: 24 h, all concentrations tested. The protocol:
To ensure mitochondrial transmembrane potential, the cells were stained with rhodamine 123 (5 µg/ml, Sigma-Aldrich Co.) at 37 °C for 15 min in the dark. The cells were then washed with saline and incubated in saline for 30 min in the dark at 37 °C, and cell fluorescence was determined using flow cytometry.

In data set [7] the test system is HCT116 cells. Put plainly: CD133 expression by flow cytometry. In kind it is cell-based, human. The conditions noted are these: 10 μM, 24 h; control 32.0%. The protocol:
For cell surface protein staining, cells were washed with incubation buffer (0.5% bovine serum albumin in PBS), and then antibodies were added and incubated for 1 h at room temperature. The cells were then washed with PBS, and cell fluorescence was measured using flow cytometry. To select viable cells for quantification of CD133-positive cells, YO-PRO-1 (Sigma-Aldrich Co.) was used.

Data set [8] concerns HCT116 cells. Put plainly: Colony-forming assay. Format: cell-based, human. The conditions noted are these: 24, 48, 72 h treatment, 14 days culture. The protocol:
To test clonogenic ability, 1000 cells were seeded in 6-well plates with 6 ml of complete medium and incubated with the drug for 24, 48, and 72 h. The medium was then changed to drug-free fresh medium and cultured for a total of 14 days. The cells were then fixed in methanol and stained with 0.5% crystal violet. The number of colonies with more than 50 cells was counted using an optical microscope (Nikon, TS100).

Data set [9] deals with HCT116 cells. In words: CRC experimental lung metastasis xenograft model. Format: in vivo, C. B-17 SCID mice. The conditions noted are these: 2 mg/kg i.p. every other day for 4 weeks; control 5.0 ± 0.5. How it is done:
HCT116 cells (2 × 10^6 cells/100 μl) were injected into the tail vein of each mouse. The animals were then treated intraperitoneally (200 μl/animal) every other day for 4 weeks. […] The animals were euthanized with an anesthetic overdose (thiopental, 100 mg/kg) 1 day after treatment ended, and their lungs were excised and fixed in 4% formaldehyde. The number of lung macrometastases per animal was counted and processed for histological analysis.

Data set [10] deals with HepG2 human hepatocellular carcinoma cells. The conditions noted are these: HepG2 in monolayers or 3D multicellular cancer spheroids; cited from earlier work.
In the next data set the test system is HepG2 cells. The conditions noted are these: C. B-17 SCID mice engrafted with HepG2 cells; cited from earlier work.

For orientation: IC50 means the point on the concentration scale where inhibition reaches its midpoint. With cis-[Ru(phen)2(xant)](PF6) [RXC], the IC50 with A-375 amounted to 3.46 µM; in the data set on HSC-3, 4.84 µM; with K-562 it was 3.88 µM; with KG-1a, 2.31 µM; in the data set on MCF-7, 9.55 µM; in the data set with MDA-MB-231, 2.36 µM. Moreover, the IC50 in the data set with U-87 MG stood at 7.03 µM. For the same substance, the reduced cell viability in [1] stood at 79.8%; in data set [2] it was 79.2%; in data set [3], 79.6%; in [4] it was 37.4%. Moreover, the “DNA fragmentation (sub-G0/G1)” value in the data set on HCT116 cells [5] (2.5 μM, 48 h, control […]) is given as 7.1%; with HCT116 cells [5] (2.5 μM, 72 h, control 2.0%), 18.8%; in the data set on HCT116 cells [5] (5 μM, 48 h, control […]), 9.3%; with HCT116 cells [5] (5 μM, 72 h, control 2.0%), 22.4%; in the data set with HCT116 cells [5] (10 μM, 48 h, control […]) it was 9.6%; in the data set with HCT116 cells [5] (10 μM, 72 h, control 2.0%), 34.3%. Also, in the data set on HCT116 cells [5] (10 μM, 24 h), the cell cycle effect entry is reported as “cell cycle arrest in S-phase”. Besides, in the data set with HCT116 cells [6], the mitochondrial transmembrane potential entry is “mitochondrial depolarization”. The “HCT116 CD133-positive cells” value in the data set on HCT116 cells [7] amounted to 10.1%. Besides, in the data set with HCT116 cells [8], the clonogenic survival entry is recorded as “inhibit the clonogenic survival”. Also, in the data set on HCT116 cells [9], the “mean number of pulmonary metastatic nodules” value is given as 1.3 ± 0.4. Moreover, in data set [10], the cytotoxicity entry is listed as “potent cytotoxicity”. In addition, in the data set with HepG2 cells, the tumor growth entry is “suppressed tumor growth”.
